Assay results: patent US20090054403A1, “Treatment of Post-Traumatic Stress Disorder” (priority 2007, published 2009)

Legend:
mice [1] = experiment: Gross motor behavior and locomotor activity after acute dosing; type: in vivo
blood pressure = experiment: Radio-telemetry blood pressure in SHR, up to 30 days; type: in vivo
mice [2] = experiment: Clinical observations, behavioral tests and rectal temperature after single oral dose; type: in vivo; conditions: 30, 100, 300 mg/kg single oral, from 60 min
Experimental: A single oral dose of vehicle or Nepicastat formulation was administered by gavage to each mouse using a rodent intubator. The oral route was selected because it is a proposed clinical route of administration. Dose volumes were calculated on the basis of individual body weights recorded before dosing (body weight data are not tabulated in this report). Food and water were withheld from the mice 2.5 to 3.5 hours before dosing, instead of 1.5 hours as specified in the protocol.
Clinical observations were recorded before dosing. Beginning 60 minutes after dosing, mice in each treatment group were evaluated in groups of up to 3 over an interval of approximately 10 minutes each for clinical observations and protocol-specified behavioral tests.^1 One mouse in the 30-mg/kg group and 1 mouse in the 100-mg/kg group died after dosing and they were removed from the study. Surviving mice were euthanatized and removed from the study at the end of the observation/testing period.
Mice in groups of 6 males each were administered single oral doses of 0 (vehicle), 30, 100, or 300 mg/kg of nepicastat by gavage. Clinical observations and behavioral tests were initiated 60 minutes after administration of the test formulation. At the end of the observation period, all surviving mice were euthanatized and removed from the study.

[3] = molecular target: all other receptors examined; experiment: Radioligand filtration binding (Example 19)
Experimental: (§1) The affinity of nepicastat was determined in the bindings assays outlined in FIG. 97. Standard radioligand filtration binding methods were used. Competition binding data were analyzed by iterative curve fitting to a four parameter logistic equation. Hill coefficients and IC50 were obtained directly. pKi (−log of Ki) of competing ligands were calculated from IC50 values using the Cheng-Prusoff equation.

alpha1 receptors = experiment: Radioligand filtration binding (Example 19)
Experimental: as §1

locomotor activity = experiment: Infrared activity monitoring (IRAM) in MPTP-lesioned monkeys; type: in vivo, squirrel monkeys (Saimiri sciureus)
Experimental: Drug nepicastat or water (as placebo) was administered for 12 days following a minimum 2 day washout after L-Dopa dosing. Drug was administered twice daily at 10 am and 2 pm by oral gavage. Behavior was rated by IRAM and CRS. The CRS was conducted in the morning, 60 to 90 minutes after the 10 am dose of nepicastat on the last 5 days of drug treatment. Raters (one to three individuals) were blinded to the different treatment groups. IRAM assessments were preformed for 90 minutes immediately following drug administration at 2 pm on the last 5 days of drug treatment.
IRAM Locomotor activity was monitored every 10 minutes for a minimum of 90 minutes following each drug level. A higher rating is considered a faster (less parkinsonian) animal.
Statistical analysis consisted of descriptive statistics and graphing the mean of each 10 minutes data blocks of placebo and experimental drug at 1, 4, and 10 mg/kg. The graph was then examined to detect any trends. Further statistical analysis was not performed since no difference was determined from graphical analysis.

[4] = system: aortic contractile response to phenylephrine; experiment: Aortic contractile response in vitro to phenylephrine after 21 days treatment; type: in vivo, SHR; conditions: 10 mg/kg p.o. daily for 21 days
body core temperature = experiment: Body core temperature during 10 day chronic dosing; conditions: b.i.d. oral: nepicastat 5, 15, 50 mg/kg; SKF-102698 50 mg/kg; clonidine 20 ug/kg; d-amphetamine 2 mg/kg; days 1, 5, 10
Experimental: The effects of chronic dosing of nepicastat were examined. Between three and thirteen days prior to the first dosing day the rats were placed inside the startle apparatus and after a five minute acclimation period they were presented with a 118 dB noise burst on average once a minute (a variable inter-trial interval ranging between 30 and 90 seconds will be used) for 20 minutes. The startle responses were measured and a mean for the last twenty startle response was calculated for each rat.
Rat body core temperatures were obtained by inserting the rectal probe 2 cm into the colon of each rat. Each rat's body core temperature was measured three times and the average of the three reading was calculated. Body core temperature readings were obtained immediately prior to the ten day chronic dosing schedule (to obtain a baseline), and three and half hour after the morning daily dose of nepicastat, and SKF-102698, and 15 minutes prior to the daily administration of clonidine and d-amphetamine, on dosing days one, five and ten. […] Both clonidine (an alpha2 agonist), and d-amphetamine (a dopamine releaser) were used as the positive controls for this assay.
An overall one-way ANOVA with a main effect for treatment was performed at each time on the change from baseline for each animal. Subsequent t-tests were performed for each comparison of interest.

SMILES: Cl.NCc1c[nH]c(=S)n1[C@H]1CCc2c(F)cc(F)cc2C1 [nepicastat, (S)-5-Aminomethyl-1-(5,7-difluoro-1,2,3,4-tetrahydronaphth-2-yl)-2,3-dihydro-2-thioxo-1H-imidazole hydrochloride]
- gross motor behavior (mice [1]; 1.0-30 mg/kg p.o., acute): no significant effects on gross motor behavior
- locomotor activity (mice [1]; 10-100 mg/kg i.p.): did not effect locomotor activity
- peak decrease in blood pressure (blood pressure; 30 mg/kg/d): −20 mmHg
- peak decrease in blood pressure (blood pressure; 100 mg/kg/d): −42 mmHg
- effect on blood pressure (blood pressure; 3 and 10 mg/kg/d): no significant effects
- effect on blood pressure (blood pressure; 30 and 100 mg/kg/d for 30 days): significantly lowered blood pressure
- effect on blood pressure of nepicastat 30 mg/kg combined with enalapril 1 mg/kg p.o. (blood pressure; 30 days of dosing): potentiation of the antihypertensive effects
- left ventricular mass, nepicastat 30 mg/kg combined with enalapril 1 mg/kg p.o. (blood pressure; 30 days of dosing): significant reduction in left ventricular mass
- motor activity (blood pressure; 30 days of dosing): unaffected
- clinical or gross behavior changes (mice [2]): No treatment-related clinical or gross behavior changes
- rectal body temperature vs vehicle-control (mice [2]): Lower body temperatures
- pKi [3]: < 6.2
- pKi (alpha1 receptors): 6.9-6.7
- activity monitoring compared to placebo (locomotor activity; 1 mg/kg/day): slower than placebo treatment
- activity monitoring compared to placebo (locomotor activity; 4 and 10 mg/kg/day, 10 to 90 minutes post-dosing): no difference
- aortic phenylephrine responsiveness [4]: restored phenylephrine responsiveness

SMILES: Fc1cc(F)cc(Cn2cc[nH]c2=S)c1 [SKF 102698, reference compound]
- body core temperature (body core temperature): Lack of Effect
